These results are taken from patent EP4722228A1, “NEW COMPOUND TARGETING MUSK AND USE THEREOF” (The University of Tokyo, priority 2023, dated 2024).

The test deals with T1, human MuSK (Homo sapiens, UniProt O15146).
T1 construct: DNA corresponding to the extracellular portion (amino acids 1-493) was amplified by a PCR method; made in house; host or cells: Expi293F cells
T1 sequence (O15146 24-493): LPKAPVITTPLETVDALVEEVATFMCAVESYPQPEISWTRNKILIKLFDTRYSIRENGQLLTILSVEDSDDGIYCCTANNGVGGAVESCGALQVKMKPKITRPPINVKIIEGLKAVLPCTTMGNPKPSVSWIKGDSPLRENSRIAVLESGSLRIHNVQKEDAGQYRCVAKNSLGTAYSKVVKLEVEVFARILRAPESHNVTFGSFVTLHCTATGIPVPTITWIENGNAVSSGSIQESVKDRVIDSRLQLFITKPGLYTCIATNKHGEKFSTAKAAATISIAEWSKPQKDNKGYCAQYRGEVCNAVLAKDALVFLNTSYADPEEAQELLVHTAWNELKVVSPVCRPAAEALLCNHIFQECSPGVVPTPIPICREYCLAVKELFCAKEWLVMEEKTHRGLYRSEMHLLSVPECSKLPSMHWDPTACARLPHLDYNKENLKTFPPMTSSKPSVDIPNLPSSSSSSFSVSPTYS
The test is described as follows: SPR binding activity test to human MuSK (Biacore). Particulars: for koff / kon: human MuSK, peptide homodimers. How it is done: The human MuSK protein (extracellular portion) was prepared as a recombinant protein as follows. Using a Flexi clone (FXC31275, Promega Corporation) encoding Human MuSK isoform 1 precursor (NCBI Reference Sequence: NP_005583.1) as a template, DNA corresponding to the extracellular portion (amino acids 1-493) was amplified by a PCR method. XhoI and EcoRI restriction enzyme recognition sequences were added to both the 5' and 3' ends of the amplified DNA sequence, and these were used for insertion into the multiple cloning site of a pCAG-Neo hIgG1-Fc plasmid (Fujifilm Wako Pure Chemical Corporation). This plasmid (pCAG-Neo hMuSK-Fc) enables expression of a chimeric protein of the secretory human MuSK extracellular portion and human IgG1 Fc (hMuSK-Fc; molecular weight of approximately 200 kDa) in animal cells. In practice, ExpiFectamine 293 reagent (Invitrogen) was used to transfect the pCAG-Neo hMuSK-Fc plasmid into Expi293F cells (Invitrogen), and shaking culture was carried out (for 6 days) in an incubator containing 8% CO2. Next, the culture supernatant was collected, centrifuged, and sterilized by filtration through a 0.22 µm filter. The obtained culture supernatant was subjected to Protein G purification, and finally, a purified hMuSK-Fc sample with 99.96% purity (AKTA-FPLC analysis) was obtained.
The strength of binding between MuSK and the cyclic peptides was evaluated by quantitatively measuring the binding kinetics (binding affinity (dissociation constant) KD) of the cyclic peptides to MuSK immobilized on a sensor chip via an Fc tag, using surface plasmon resonance (SPR).
According to the standard immobilization protocol provided by the manufacturer, Fc-tagged human/mouse/rat MuSK was immobilized on a Protein G chip or a Protein A chip (Cytiva). A running buffer for the monomer/dimer peptides contained 0.010 M phosphate, 0.14 M NaCl, 0.0027 M KCl, 0.05% (v/v) Tween 20, and 0.1% (v/v) DMSO. A running buffer for the monomer/dimer U-bodies contained 0.010 M phosphate, 0.14 M NaCl, 0.0027 M KCl, and 0.05% (v/v) Tween 20. A series of concentrations of each monomer peptide, dimer peptide, monomer U-body, and dimer U-body was injected as analytes. A 1:1 binding fitting analysis was applied using Biacore evaluation software, and ka, kd, and KD values were determined.
Fc-tagged human MuSK was prepared according to the procedure described in Example 1(1). In addition, Fc-tagged mouse MuSK was used by expressing a nucleotide sequence encoding the Fc-tagged mouse MuSK extracellular domain (SEQ ID NO: 34). In addition, Fc-tagged rat MuSK was used as a chimeric protein of rat MuSK and an Fc protein, namely, Recombinant Rat MuSK Fc Chimera Protein (catalog number: 9847-MK-050, R&D Systems).
The affinity of the U-bodies and their complexes obtained as described above for MuSK of human, rat, and mouse was evaluated (binding activity test). The test was carried out according to the procedure described in Example 1(3). However, for the complexes of U-bodies, surface plasmon resonance (SPR) analysis was carried out using a Biacore 8K (Cytiva).
Background: SPR reads the build-up and loss of mass on a sensor chip optically.

One may read the Kd as the equilibrium constant for the complex coming apart. What is called koff is the rate constant with which the complex falls apart. Higher therefore signals a short-lived complex. The term kon denotes the second-order rate constant of association. Lower therefore signals slower complex formation.

Numbered stars: 1 amine (or outer) side, 2 acyl side, 3 side chain; on linkers, the order of the positions; unused ones are H or OH. Bridge positions count the residues as written; N and C are the ends. Square brackets hold non-standard residues; d marks the D form. Peptide text beside a SMILES is read from it. I, II: the chains in the order shown. X1 = O=C(CCN1C(=O)CC([*:1])C1=O)NCCOCCOCCOCCOCCOCCOCCOCCOCCOCCOCCOCCNC(=O)CCN1C(=O)CC([*:2])C1=O; X2 = O=C(CCN1C(=O)CC([*:1])C1=O)NCCCOCCOCCOCCCNC(=O)CCN1C(=O)CC([*:2])C1=O

For `CC(=O)N[C@H](Cc1ccc(O)cc1)C(=O)N[C@@H](CC(C)C)C(=O)N1CCC[C@H]1C(=O)N[C@@H](CCC(=O)O)C(=O)N[C@@H](Cc1ccccc1)C(=O)N[C@@H](CO)C(=O)N[C@@H](Cc1c[nH]c2ccccc12)C(=O)N1CCC[C@H]1C(=O)N[C@@H](CCC(=O)O)C(=O)N[C@@H](CO)C(=O)N[C@@H](Cc1ccccc1)C(=O)N[C@H](C(=O)N[C@@H](CC(C)C)C(=O)N[C@@H](Cc1ccccc1)C(=O)N[C@@H](CC(C)C)C(=O)N[C@@H](CCCNC(=N)N)C(=O)N[C@@H](CCC(N)=O)C(=O)N[C@@H](CCCNC(=N)N)C(=O)N[C@@H](CCC(N)=O)C(=O)N[C@@H](CCCNC(=N)N)C(=O)N[C@@H](CCC(N)=O)C(=O)N[C@@H](CC(C)C)C(=O)NCC(=O)N[C@@H](CCCNC(=N)N)C(=O)NCC(=O)N[C@@H](C)C(=O)N[C@@H](CCC(=O)O)C(N)=O)C(C)C` [MuSK1Ac] (Ac-[dY]LPEFSWPESFVLFLRQRQRQLGRGAE-NH2), the Kd (25°C, Fc-tagged human MuSK immobilized, monomer peptides, read-out: Binding activity (KD)) was 1.6 nM.
Regarding `CC(C)C[C@@H]1NC(=O)[C@H](CC(C)C)NC(=O)[C@H](CO)NC(=O)[C@H](C(C)C)NC(=O)[C@H](C(C)C)NC(=O)[C@H](CC(N)=O)NC(=O)[C@H]([C@@H](C)O)NC(=O)[C@@H]2CCCN2C(=O)[C@H](Cc2ccccc2)NC(=O)[C@@H](Cc2ccc(O)cc2)NC(=O)CSC[C@@H](C(=O)N[C@@H](CSC2CC(=O)N(CCC(=O)NCCCOCCOCCOCCCNC(=O)CCN3C(=O)CC(SC[C@H](NC(=O)[C@@H]4CSCC(=O)N[C@H](Cc5ccc(O)cc5)C(=O)N[C@@H](Cc5ccccc5)C(=O)N5CCC[C@H]5C(=O)N[C@@H]([C@@H](C)O)C(=O)N[C@@H](CC(N)=O)C(=O)N[C@@H](C(C)C)C(=O)N[C@@H](C(C)C)C(=O)N[C@@H](CO)C(=O)N[C@@H](CC(C)C)C(=O)N[C@@H](CC(C)C)C(=O)N[C@@H](CCCCN)C(=O)N[C@@H](CO)C(=O)N4)C(N)=O)C3=O)C2=O)C(N)=O)NC(=O)[C@H](CO)NC(=O)[C@H](CCCCN)NC1=O` (stereo partly shown) [MuSK4 PEG3 dimer] (I: {CH2CO}-[dY]FPTNVVSLLKSCC-NH2 / II: {CH2CO}-[dY]FPTNVVSLLKSCC-NH2; linker I:14-II:14 via X2; thioether I:N-I:13, II:N-II:13), the koff was 0.0044 s⁻¹ and the kon was 650000 M⁻¹ s⁻¹.
In the case of “I: Ac-[dY]LPEFSWPESFVLFLRQRQRQLGRGAEC-NH2 / II: Ac-[dY]LPEFSWPESFVLFLRQRQRQLGRGAEC-NH2 (linker I:28-II:28 via X1) [MuSK1Ac Term PEG11 dimer]”, the koff is 0.0018 s⁻¹ and the association rate constant (kon) stood at 520000 M⁻¹ s⁻¹.
The compound “I: Ac-[dY]LPEFSWPESFVLFLRQRQRQLGRGAEC-NH2 / II: Ac-[dY]LPEFSWPESFVLFLRQRQRQLGRGAEC-NH2 (linker I:28-II:28 via X2) [MuSK1Ac Term PEG3 dimer]” returned a koff of 0.0012 s⁻¹ and a kon of 200000 M⁻¹ s⁻¹.
